According to article PMC10458307, “New Scaffolds of Proteasome Inhibitors: Boosting Anticancer Potential by Exploiting the Synergy of In Silico and In Vitro Methodologies” (Pharmaceuticals, 2023):
Values joined by “and” are separate entries in the source; they are usually repeats but may differ in a detail not shown here. Equal values may be shown once. Read-outs that look alike come from different tables or passages of the source.

Assays:
[1] = biological target: T1, isolated human 20S proteasome, CT-L activity (Homo sapiens, UniProt P20618+P28074); experiment: Proteasome inhibition assay in isolated human 20S proteasomes (Proteasome-Glo), CT-L activity; format: biochemical; conditions: for inhibition at 10 µM: read-out: percentage of proteasome inhibition, CT-L, isolated 20S proteasome; for percentage of proteasome inhibition, CT-L, isolated human 20S proteasome: at 100 µM, Table 1 legend: bortezomib positive control 10 µM
T1 construct: human purified erythrocyte-derived 20S proteasome; purchased Enzo Life Sciences, Inc; host or cells: human erythrocytes (natural source)
Description: In this assay, the peptide substrates are bound to aminoluciferin (Suc-LLVY-AML for CT-L activity, Z-nLPnLD-AML for C-L, and Z-LRR-AML for T-L), leading the cleavage of these substrates by the proteasome to the release of free aminoluciferin, which is the substrate of the buffer-contained luciferase.
To evaluate human purified erythrocyte-derived 20S proteasome inhibitory activity of the chosen compounds, the Proteasome-Glo™ 3-substrate system (Promega Corporation, Madison, WI, USA) was employed. The Proteasome-Glo™ reagents of the three proteolytic activities were prepared according to the manufacturer’s instructions, aliquoted, and stored at either −20 °C or 4 °C, avoiding freezing–thaw cycles. […] The purified 20S proteasome (Enzo Life Sciences, Inc., Farmingdale, NY, USA) was diluted in HEPES buffer 10 mM, pH 7.4, to a concentration experimentally adjusted to the signal/noise ratio obtained with each particular lot of Proteasome-Glo™ reagent, in order to have a good compromise between sensitivity and linear response. […] All assays were performed in white-walled multiwell plates (Thermo Scientific™ Sterilin™ White Microtiter™ plates, Thermo Fisher Scientific, Paisley, UK) in duplicates. The proteasome solution (25 μL) was added to each well first, then the diluted solutions of the assayed compounds (25 μL), and lastly the Proteasome-Glo™ Reagent (50 μL). […] Reagents were added to the plate well on ice, and the plate was then transferred to the plate luminometer (SpectraMax®, Molecular Devices, LLC, San Jose, CA, USA) set at 37 °C, gently mixed for 30 s, and the measurements were immediately started in kinetic mode, with data collected every 5 min for at least 60 min.
All compounds were dissolved in DMSO at a concentration of 10 mM and stored at −20 °C or 4 °C. Solutions of the test compounds were prepared at their adequate dilutions in 10 mM HEPES buffer pH 7.6 before each experiment.
To calculate the proteasome activity over time, the value of mean relative luminescence units (RLU) of blank wells at each respective time point was subtracted, and then the ratio between mean RLU of the sample and mean RLU of the positive control wells was calculated for each time point and expressed as percentage.

[2] = biological target: T2, 20S proteasome in Jurkat cell lysates, C-L activity (Homo sapiens, UniProt P28072); experiment: Proteasome inhibition assay in cell lysates, Jurkat, C-L; conditions: for inhibition at 10 µM: read-out: percentage of proteasome inhibition, C-L, cell lysates Jurkat, at 10 µM; for inhibition at 100 µM: read-out: percentage of proteasome inhibition, C-L, cell lysates Jurkat, at 100 µM
T2 sequence (P28072 35-239 limits assumed): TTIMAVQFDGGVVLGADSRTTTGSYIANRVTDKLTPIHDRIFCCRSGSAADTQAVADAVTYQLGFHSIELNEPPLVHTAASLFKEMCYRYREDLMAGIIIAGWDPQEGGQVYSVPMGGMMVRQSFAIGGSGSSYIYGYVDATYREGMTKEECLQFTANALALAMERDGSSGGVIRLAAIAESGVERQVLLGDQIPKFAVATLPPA
T2 sequence (Q99436 44-277 partner): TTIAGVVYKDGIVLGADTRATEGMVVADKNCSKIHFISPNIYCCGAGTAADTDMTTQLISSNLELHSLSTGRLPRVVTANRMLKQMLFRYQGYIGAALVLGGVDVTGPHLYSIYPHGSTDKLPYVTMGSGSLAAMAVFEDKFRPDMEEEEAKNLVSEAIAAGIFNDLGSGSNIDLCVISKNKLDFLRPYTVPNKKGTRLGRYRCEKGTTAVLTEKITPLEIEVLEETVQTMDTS
Description: (§1) Cells were obtained from several cultured cell lines: Jurkat, K562, HT-29, and HCT116. Pellets with 20 × 10^6 cells were prepared and washed with cold sterile phosphate buffered saline (PBS), 1×, pH 7.4 (Gibco, Thermo Fisher Scientific, Paisley, UK). […] Cells were resuspended in buffer containing 50 mM TRIS-HCl pH 7.4 (Nzytech, Lisboa, Portugal), 5 mM MgCl2 (≥98% purity, Merck, Hamburg, Germany), 1 mM DTT (Merck, Hamburg, Germany), 2 mM ATP (≥98% purity, Enzo Life Sciences Inc., Farmingdale, NY, USA), and 250 mM saccharose (Merck, Hamburg, Germany). Glass beads (Merck, Hamburg, Germany) equivalent to the volume of the cell suspension were added, and the mixture was vortexed for 2 min at 4 °C. Beads and cell debris were removed using 5 min centrifugation at 1000× g and 4 °C, followed by 20 min of centrifugation at 10,000× g at 4 °C. Cell lysates containing proteasomes were resuspended in “activity buffer” [50 mM TRIS-HCl (pH 7.4), 5 mM MgCl2, 1 mM DTT, 2 mM ATP (≥98% purity, Enzo Life Sciences Inc., Farmingdale, NY, USA), and 500 µM EDTA (≥98% purity, Merck, Hamburg, Germany)]. Protein concentration was determined using the Pierce™ BCA protocol (Thermo Fisher Scientific, Rockford, IL, USA). […] DMSO was added in an equal volume as used for the untreated compounds as a way to assess/control its influence in the assay. Untreated cells were used as control. In each well of a 96-well plate, 25 µL of lysate were seeded in duplicate with 25 µL of the compound to test; in the control, 25 µL of activity buffer were added to the 25 µL of lysate. A blank (50 µL of activity buffer) was added to the wells in quadruplicate. Cell lysates, pre-treated or not with different concentrations of the test compounds, were incubated for 30 min at 37 °C. […] Stock solutions (10 mM) of each substrate were prepared in DMSO, diluted in activity buffer, and 50 µL were added to all wells (final concentration of each substrate = 100 µM), followed by an incubation at 37 °C for 60 min. Samples fluorescence was measured at an excitation wavelength of 360 nm and emission of 465 nm; the fluorescence measures were performed using the GloMax-Multi + Detection System (Promega Corp., Madison, WI, USA). Activity was evaluated in fluorescence units, after being converted to percentage of proteasome inhibition and, whenever possible, expressed as IC50 by plotting the inhibition data of each compound at different concentrations against the log of the concentration of the inhibitor, using the GraphPad Prism software version 7. At least eight different concentrations of the test compounds were used.

[3] = biological target: T3, 20S proteasome in HT-29 cell lysates, CT-L activity (Homo sapiens, UniProt P28074); experiment: Proteasome inhibition assay in cell lysates, HT-29, CT-L; conditions: for inhibition at 10 µM: read-out: percentage of proteasome inhibition, CT-L, cell lysates HT-29, at 10 µM; for inhibition at 100 µM: read-out: percentage of proteasome inhibition, CT-L, cell lysates HT-29, at 100 µM
T3 sequence (P28074 60-263): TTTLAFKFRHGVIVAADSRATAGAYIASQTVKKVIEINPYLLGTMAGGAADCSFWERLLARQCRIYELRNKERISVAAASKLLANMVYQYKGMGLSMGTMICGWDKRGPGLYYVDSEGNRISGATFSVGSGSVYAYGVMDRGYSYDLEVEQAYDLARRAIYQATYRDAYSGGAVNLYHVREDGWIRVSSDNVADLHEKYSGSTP
T3 sequence (P20618 29-241 partner): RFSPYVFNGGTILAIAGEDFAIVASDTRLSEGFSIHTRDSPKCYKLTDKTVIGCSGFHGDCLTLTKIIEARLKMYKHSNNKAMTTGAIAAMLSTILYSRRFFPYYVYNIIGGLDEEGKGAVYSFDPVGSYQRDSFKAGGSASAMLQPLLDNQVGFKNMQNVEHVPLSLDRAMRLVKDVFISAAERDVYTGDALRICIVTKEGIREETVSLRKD
Description: as §1

[4] = biological target: T4, 20S proteasome in HCT116 cell lysates, C-L activity (Homo sapiens, UniProt P28072); experiment: Proteasome inhibition assay in cell lysates, HCT116, C-L; conditions: for percentage of proteasome inhibition, C-L, cell lysates HCT116: at 100 µM; for percentage of proteasome inhibition, C-L, cell lysates HCT116 / inhibition at 100 µM: Table 2 legend: bortezomib 10 µM, NI = No inhibition; for inhibition at 100 µM: read-out: percentage of proteasome inhibition, C-L, cell lysates HCT116, at 100 µM; for inhibition at 10 µM: read-out: percentage of proteasome inhibition, C-L, cell lysates HCT-116, at 10 µM
T4 sequence (P28072 35-239 limits assumed): T2 sequence (P28072 35-239 limits assumed)
T4 sequence (Q99436 44-277 partner): T2 sequence (Q99436 44-277 partner)
Description: as §1

[5] = at 100 µM, Table 2 legend: bortezomib 10 µM
[6] = Table 2 legend: bortezomib 10 µM
[7] = mean ± SD, read-out: IC50, CT-L, isolated human 20S proteasome

SMILES | inhibition at 10 µM ([1]; at 10 µM) | percentage of proteasome inhibition, CT-L, isolated human 20S proteasome [1] | percentage of proteasome inhibition, C-L, cell lysates Jurkat ([2]; at 10 µM) | percentage of proteasome inhibition, C-L, cell lysates Jurkat [2, 5] | percentage of proteasome inhibition, CT-L, cell lysates HT-29 ([3]; at 10 µM) | percentage of proteasome inhibition, CT-L, cell lysates HT-29 [3, 5] | percentage of proteasome inhibition, C-L, cell lysates HCT-116 ([4]; at 10 µM) | percentage of proteasome inhibition, C-L, cell lysates HCT116 [4] | inhibition at 10 µM [2] | inhibition at 100 µM [2, 6] | IC50 [3] | inhibition at 10 µM [3] | inhibition at 100 µM [3, 6] | IC50 [4] | inhibition at 100 µM [4] | inhibition at 10 µM [4] | IC50 [1, 7] | IC50 [2] | IC50 [1] | inhibition at 10 µM [1]
O=C1c2ccccc2C(=O)c2c(Nc3ccc(S(=O)(=O)N(CCO)CCO)cc3)ccc(O)c21 [Compound 2] | 81.3% | 98% | – | 74% | – | 62% | – | 74% | 26.9% | 73.5% | 73.8 µM | 2.11% | 62.2% | 43.5 µM | 74.1% | 11.1% | 5.6 µM | 42.4 µM | – | –
Cc1ccc(/C(=N/NS(=O)(=O)c2ccc([N+](=O)[O-])cc2)Sc2cc(Cl)c(C)cc2S(N)(=O)=O)cc1 [Compound 3] | – | 91.40% and 91% | – | 25% | – | 31% | – | – | 0% | 25.4% | – | 0% | 31.4% | – | 0% | 0% | – | – | 49.3 µM | 8.2%
C#CCCN1CCN(c2ccc(-n3c(=O)ccc4cnc5ccc(-c6ccc(N)nc6)cc5c43)cc2C(F)(F)F)CC1 [Compound 4, 9-(6-Aminopyridin-3-yl)-1-(4-(4-(but-3-yn-1-yl)piperazin-1-yl)-3-(trifluoromethyl)phenyl)benzo[h][1,6]naphthyridin-2(1H)-one] | 3.3% | 69.90% and 70% | – | 99% | – | 98% | – | 90% | 8.16% | 98.9% | 31.3 µM | 10.1% | 97.9% | 28.9 µM | 90.1% | 69.2% | 51.1 µM | 27 µM | – | –

Now from value to molecule:

inhibition at 10 µM ([1]; at 10 µM) | percentage of proteasome inhibition, CT-L, isolated human 20S proteasome [1] | percentage of proteasome inhibition, C-L, cell lysates Jurkat ([2]; at 10 µM) | percentage of proteasome inhibition, C-L, cell lysates Jurkat [2, 5] | percentage of proteasome inhibition, CT-L, cell lysates HT-29 ([3]; at 10 µM) | percentage of proteasome inhibition, CT-L, cell lysates HT-29 [3, 5] | percentage of proteasome inhibition, C-L, cell lysates HCT-116 ([4]; at 10 µM) | percentage of proteasome inhibition, C-L, cell lysates HCT116 [4] | inhibition at 10 µM [2] | inhibition at 100 µM [2, 6] | IC50 [3] | inhibition at 10 µM [3] | inhibition at 100 µM [3, 6] | IC50 [4] | inhibition at 100 µM [4] | inhibition at 10 µM [4] | IC50 [1, 7] | IC50 [2] | IC50 [1] | inhibition at 10 µM [1] | SMILES
91% | 99.92% and 100% | 92.00% | 94.22% and 94% | 97.99% | 99.37% and 99% | 94.21% | 99% | – | – | – | – | – | – | – | – | – | – | – | – | CC(C)C[C@H](NC(=O)[C@H](Cc1ccccc1)NC(=O)c1cnccn1)B(O)O [Bortezomib, bortezomib, reference compound]
0% | 37.72% and 38% | – | 19% | – | 62% | – | 71% | 2.27% | 19.4% | 90.8 µM | 0% | 62.1% | 75.6 µM | 71.2% | 0% | – | – | – | – | Cc1ccc2ccccc2c1CSc1ncnc2c1ncn2C1OC(CO)C(O)C1O (centres unmarked) [Compound 1]
2.85% | 35.60% and 36% | – | 36% | – | 81% | – | 28% | 0% | 36.2% | 84.3 µM | 0% | 81.2% | – | 28.1% | 0% | – | – | – | – | CC(C)c1nc(CN(C)C(=O)N[C@@H](CCN2CCOCC2)C(=O)N[C@H](CC[C@H](Cc2ccccc2)NC(=O)OCc2cncs2)Cc2ccccc2)cs1 [Compound 5, cobicistat, reference compound]
